GI50 data for 19 compounds are collected here from US20260062422A1 (Halda Therapeutics OpCo, Inc., priority 2022, published 2026).

For orientation: GI50 means the concentration giving 50% growth inhibition. A high value points to less potent growth inhibition.

One experiment deals with T47D cells. As to the kind of experiment: Cellular growth inhibition assay for T47D cells, CellTiter-Glo. The experiment is classed as cell-based, human. The following applies: 72 hours treatment, CellTiter-Glo 2.0 cell viability. The method in brief:
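Cells are plated at 3000/well and allowed 24 h before treatment. Test compound in medium containing 0.5% DMSO is then added, with DMSO-only wells as negative control, and plates are incubated 72 h at 37 °C. ATP luminescence (CellTiter-Glo 2.0) is then fitted to four parameters to derive GI50.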
A general note: In ATP-based viability assays light output follows the ATP content of the culture.

The subject of experiment [1] is T-Rex 293 cell line SC3 cells lacking increased expression of androgen receptor protein. The experiment is described as follows: Cellular growth inhibition, T-Rex 293 SC3 cells without doxycycline, CellTiter-Glo. The experiment is classed as cell-based. The following applies: T-Rex 293 SC3 cells not exposed to doxycycline, CellTiter-Glo 2.0. The method in brief:
(§1)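 With DMSO (0.5%) vehicle as negative control, compounds treated SC3 cells for 72 h in medium containing charcoal-dextran FBS ± doxycycline. This T-Rex 293 clone expresses transfected wild-type AR on induction. Readout: CellTiter-Glo 2.0; GI50 by nonlinear regression.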

In another experiment the test system is VCaP cells. The experiment is described as follows: Cellular growth inhibition assay for VCaP cells, CellTiter-Glo. The experiment is classed as cell-based, human. Conditions: 72 hours treatment, CellTiter-Glo 2.0. The method in brief:
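GI50 values come from four-parameter curve fits of luminescence data normalized to a zero baseline. Compound, in medium with 0.5% DMSO, was added one day after plating and left for 72 h before CellTiter-Glo 2.0 addition.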

In experiment [2] the test system is T-Rex 293 cell line SC3 cells having increased expression of androgen receptor protein due to exposure to doxycycline. As to the kind of experiment: Cellular growth inhibition, T-Rex 293 SC3 cells with doxycycline (androgen receptor induced), CellTiter-Glo. The experiment is classed as cell-based. Conditions: T-Rex 293 SC3 cells with 10 ng/mL doxycycline (increased androgen receptor expression). The method in brief:
as §1

Take `Cc1sc2c(c1C)C(c1ccc(CNC(=O)NCc3ncc(C(=O)N[C@H]4C(C)(C)[C@H](Oc5ccc(C#N)c(Cl)c5)C4(C)C)cn3)cc1)=N[C@@H](Cc1ncco1)c1nnc(C)n1-2` [Compound I-326]: the GI50 in the experiment on T47D cells (Homo sapiens, T47D, 72 h) is 1500 to 3000 nM; in experiment [1] (72 h) it was greater than 3000 nM; in the experiment on VCaP cells (Homo sapiens, VCaP, 72 h), 500 to 1500 nM; in experiment [2] (72 h), 500 to 1500 nM.

Take `Cc1sc2c(c1C)C(c1ccc(C(=O)N3CCN(Cc4ncc(C(=O)N[C@H]5C(C)(C)[C@H](Oc6ccc(C#N)c(Cl)c6)C5(C)C)cn4)CC3)cc1)=N[C@@H](Cc1ncco1)c1nnc(C)n1-2` [Compound I-327]: the GI50 with T47D cells (Homo sapiens, T47D, 72 h) was greater than 3000 nM; in experiment [1] (72 h), greater than 3000 nM; in the experiment on VCaP cells (Homo sapiens, VCaP, 72 h), greater than 3000 nM; in experiment [2] (72 h), greater than 3000 nM.

On to `Cc1sc2c(c1C)C(c1ccc(C(=O)N3CCN(Cc4ncc(C(=O)N[C@H]5C(C)(C)[C@H](Oc6ccc(C#N)c(Cl)c6)C5(C)C)cn4)CC3)cc1)=N[C@H](Cc1ncco1)c1nnc(C)n1-2` [Compound I-328], for which the GI50 in the experiment on T47D cells (Homo sapiens, T47D, 72 h) was 1500 to 3000 nM; in experiment [1] (72 h), greater than 3000 nM; in the experiment with VCaP cells (Homo sapiens, VCaP, 72 h) it was greater than 3000 nM; in experiment [2] (72 h), 1500 to 3000 nM.

Take `Cc1sc2c(c1C)C(c1ccc(N3CCC(C(=O)NCc4ncc(C(=O)N[C@H]5C(C)(C)[C@H](Oc6ccc(C#N)c(Cl)c6)C5(C)C)cn4)CC3)cc1)=N[C@@H](Cc1ncco1)c1nnc(C)n1-2` [Compound I-329]: the GI50 in the experiment with T47D cells (Homo sapiens, T47D, 72 h) was less than 500 nM; in experiment [1] (72 h), 500 to 1500 nM; in the experiment on VCaP cells (Homo sapiens, VCaP, 72 h), less than 500 nM; in experiment [2] (72 h), less than 500 nM.

As for `Cc1sc2c(c1C)C(c1ccc(CCNC(=O)NCc3ncc(C(=O)N[C@H]4C(C)(C)[C@H](Oc5ccc(C#N)c(Cl)c5)C4(C)C)cn3)cc1)=N[C@H](Cc1ncco1)c1nnc(C)n1-2` [Compound I-330], the GI50 is 1500 to 3000 nM with T47D cells (Homo sapiens, T47D, 72 h); greater than 3000 nM in experiment [1] (72 h); 500 to 1500 nM in the experiment on VCaP cells (Homo sapiens, VCaP, 72 h); less than 500 nM in experiment [2] (72 h).

Turning to `Cc1sc2c(c1C)C(c1ccc(N3CCC[C@H](C(=O)NCc4ncc(C(=O)N[C@H]5C(C)(C)[C@H](Oc6ccc(C#N)c(Cl)c6)C5(C)C)cn4)C3)cc1)=N[C@@H](Cc1ncco1)c1nnc(C)n1-2` [Compound I-331], the 50% growth inhibitory concentration (GI50) with T47D cells is 500 to 1500 nM; in experiment [1] (72 hours), 500 to 1500 nM; with VCaP cells, less than 500 nM; in experiment [2] (72 hours) it was less than 500 nM.

`Cc1sc2c(c1C)C(c1ccc(N3CCC[C@H](C(=O)NCc4ncc(C(=O)N[C@H]5C(C)(C)[C@H](Oc6ccc(C#N)c(Cl)c6)C5(C)C)cn4)C3)cc1)=N[C@@H](Cc1ncco1)c1nnc(C)n1-2` [Compound I-332]: the GI50 (in the experiment with T47D cells; in experiment [1] (72 hours); in the experiment on VCaP cells; in experiment [2] (72 hours)) was greater than 3000 nM throughout.

With `Cc1sc2c(c1C)C(c1ccc(C(=O)N3CCN(CCc4ncc(C(=O)N[C@H]5C(C)(C)[C@H](Oc6ccc(C#N)c(Cl)c6)C5(C)C)cn4)CC3)cc1)=N[C@@H](Cc1ncco1)c1nnc(C)n1-2` [Compound I-333], the GI50 with T47D cells (Homo sapiens, T47D, 72 h) is greater than 3000 nM; in experiment [1] (72 h) it was greater than 3000 nM; in the experiment with VCaP cells (Homo sapiens, VCaP, 72 h), greater than 3000 nM; in experiment [2] (72 h), greater than 3000 nM.

Turning to `Cc1sc2c(c1C)C(c1ccc(CN3CCO[C@@H](CNc4ncc(C(=O)N[C@H]5C(C)(C)[C@H](Oc6ccc(C#N)c(Cl)c6)C5(C)C)cn4)C3)cc1)=N[C@@H](Cc1ncco1)c1nnc(C)n1-2` [Compound I-334], the GI50 in the experiment on T47D cells (Homo sapiens, T47D, 72 h) was less than 500 nM; in experiment [1] (72 h) it was less than 500 nM; in the experiment on VCaP cells (Homo sapiens, VCaP, 72 h), less than 500 nM; in experiment [2] (72 h) it was less than 500 nM.

With `Cc1sc2c(c1C)C(c1ccc(CN(C)C(=O)CN(C)c3ncc(C(=O)N[C@H]4C(C)(C)[C@H](Oc5ccc(C#N)c(Cl)c5)C4(C)C)cn3)cc1)=N[C@@H](Cc1ncco1)c1nnc(C)n1-2` [Compound I-335], the GI50 was 500 to 1500 nM with T47D cells (Homo sapiens, T47D, 72 h); greater than 3000 nM in experiment [1] (72 h); 500 to 1500 nM in the experiment with VCaP cells (Homo sapiens, VCaP, 72 h); less than 500 nM in experiment [2] (72 h).

On to `Cc1sc2c(c1C)C(c1ccc(N3CCCC(C(=O)N4CCC[C@H](c5ncc(C(=O)N[C@H]6C(C)(C)[C@H](Oc7ccc(C#N)c(Cl)c7)C6(C)C)cn5)C4)C3)cc1)=N[C@@H](Cc1ncco1)c1nnc(C)n1-2` (stereo partly shown) [Compound I-336], for which the GI50 with T47D cells (Homo sapiens, T47D, 72 h) was less than 500 nM; in experiment [1] (72 h), 500 to 1500 nM; with VCaP cells (Homo sapiens, VCaP, 72 h), 500 to 1500 nM; in experiment [2] (72 h) it was less than 500 nM.

With `Cc1sc2c(c1C)C(c1ccc(N3CCC[C@H](C(=O)N4CCC[C@@H](c5ncc(C(=O)N[C@H]6C(C)(C)[C@H](Oc7ccc(C#N)c(Cl)c7)C6(C)C)cn5)C4)C3)cc1)=N[C@@H](Cc1ncco1)c1nnc(C)n1-2` [Compound I-337], the GI50 is less than 500 nM in the experiment on T47D cells (Homo sapiens, T47D, 72 h); 500 to 1500 nM in experiment [1] (72 h); less than 500 nM in the experiment with VCaP cells (Homo sapiens, VCaP, 72 h); less than 500 nM in experiment [2] (72 h).

Turning to `Cc1sc2c(c1C)C(c1ccc(N3CCC[C@H](C(=O)N4CCC[C@H](c5ncc(C(=O)N[C@H]6C(C)(C)[C@H](Oc7ccc(C#N)c(Cl)c7)C6(C)C)cn5)C4)C3)cc1)=N[C@H](Cc1ncco1)c1nnc(C)n1-2` [Compound I-338], the concentration for 50% growth inhibition (GI50) was greater than 3000 nM in the experiment with T47D cells (Homo sapiens, T47D, 72 h); greater than 3000 nM in experiment [1] (72 h); greater than 3000 nM in the experiment with VCaP cells (Homo sapiens, VCaP, 72 h); greater than 3000 nM in experiment [2] (72 h).

As to `Cc1sc2c(c1C)C(c1ccc(N3CCC[C@H](C(=O)N4CCC[C@@H](c5ncc(C(=O)N[C@H]6C(C)(C)[C@H](Oc7ccc(C#N)c(Cl)c7)C6(C)C)cn5)C4)C3)cc1)=N[C@H](Cc1ncco1)c1nnc(C)n1-2` [Compound I-339], the GI50 in the experiment with T47D cells (Homo sapiens, T47D, 72 h) is greater than 3000 nM; in experiment [1] (72 h), greater than 3000 nM; in the experiment with VCaP cells (Homo sapiens, VCaP, 72 h), greater than 3000 nM; in experiment [2] (72 h), greater than 3000 nM.

For the compound `Cc1sc2c(c1C)C(c1ccc(N3CCN(C(=O)c4ncc(C(=O)N[C@H]5C(C)(C)[C@H](Oc6ccc(C#N)c(Cl)c6)C5(C)C)cn4)CC3)cc1)=N[C@@H](Cc1ncco1)c1nnc(C)n1-2` [Compound I-340], the GI50 with T47D cells (Homo sapiens, T47D, 72 h) was 1500 to 3000 nM; in experiment [1] (72 h), greater than 3000 nM; with VCaP cells (Homo sapiens, VCaP, 72 h) it was greater than 3000 nM; in experiment [2] (72 h) it was greater than 3000 nM.

As for `Cc1sc2c(c1C)C(c1ccc(N3CCN(C(=O)c4ncc(C(=O)N[C@H]5C(C)(C)[C@H](Oc6ccc(C#N)c(Cl)c6)C5(C)C)cn4)CC3)cc1)=N[C@H](Cc1ncco1)c1nnc(C)n1-2` [Compound I-341], the GI50 with T47D cells (Homo sapiens, T47D, 72 h) was 500 to 1500 nM; in experiment [1] (72 h) it was 500 to 1500 nM; in the experiment with VCaP cells (Homo sapiens, VCaP, 72 h), less than 500 nM; in experiment [2] (72 h) it was 500 to 1500 nM.

As for `Cc1sc2c(c1C)C(c1ccc(C(=O)N(C)CCCc3ncc(C(=O)N[C@H]4C(C)(C)[C@H](Oc5ccc(C#N)c(Cl)c5)C4(C)C)cn3)cc1)=N[C@@H](Cc1ncco1)c1nnc(C)n1-2` [Compound I-342], the GI50 with T47D cells (Homo sapiens, T47D, 72 h) was greater than 3000 nM; in experiment [1] (72 h), greater than 3000 nM; in the experiment on VCaP cells (Homo sapiens, VCaP, 72 h), greater than 3000 nM; in experiment [2] (72 h) it was greater than 3000 nM.

Consider `Cc1sc2c(c1C)C(c1ccc(C(=O)N(C)CCCc3ncc(C(=O)N[C@H]4C(C)(C)[C@H](Oc5ccc(C#N)c(Cl)c5)C4(C)C)cn3)cc1)=N[C@H](Cc1ncco1)c1nnc(C)n1-2` [Compound I-343], for which the GI50 was 1500 to 3000 nM in the experiment with T47D cells (Homo sapiens, T47D, 72 h); greater than 3000 nM in experiment [1] (72 h); 1500 to 3000 nM in the experiment with VCaP cells (Homo sapiens, VCaP, 72 h); 1500 to 3000 nM in experiment [2] (72 h).

Consider `Cc1sc2c(c1C)C(c1ccc(C(=O)N3CCC[C@@H](C(=O)c4ncc(C(=O)N[C@H]5C(C)(C)[C@H](Oc6ccc(C#N)c(Cl)c6)C5(C)C)cn4)C3)cc1)=N[C@@H](Cc1ncco1)c1nnc(C)n1-2` [Compound I-344], for which the concentration for 50% growth inhibition (GI50) in the experiment with T47D cells (Homo sapiens, T47D, 72 h) was 500 to 1500 nM; in experiment [1] (72 h) it was greater than 3000 nM; with VCaP cells (Homo sapiens, VCaP, 72 h), 500 to 1500 nM; in experiment [2] (72 h), greater than 3000 nM.
